“And” between values parts separate entries of the source, which are not always exact repeats. Identical values can stand only once.
Experiments:
[1] = tested on: adhesion formation at the site of sidewall injury; experiment: Peritoneal sidewall adhesion model (rabbit); assay type: in vivo; conditions: for Adhesion Area / Adhesion Tenacity: individual animals; for Adhesion Area Mean/SEM: group mean; for Adhesion Tenacity Mean/SEM (mean of the rank of the tenacity): group mean rank; for Adhesion Tenacity: score 0-3
Method: Multiple studies to confirm the efficacy of histamine H4 receptor antagonists in the reduction or inhibition of adhesion formation after peritoneal surgery were performed using a sidewall adhesion model.
Animals: Twenty eight female New Zealand White rabbits, 2.4-2.7 kg, were purchased from Irish Farms and quarantined for at least 2 days prior to use. The rabbits were housed on a 12:12 light:dark cycle with food and water available ad libitum.
Rabbits were anesthetized with a mixture of 55 mg/kg ketamine hydrochloride and 5 mg/kg Rompum intramuscularly. Following preparation for sterile surgery, a midline laparotomy was performed. A polyethylene catheter (Clay Adams polyethylene tubing PE-60 ID 0.76 mm (0.030″) OD 1.22 mm (0.048″)) was introduced into the peritoneal cavity and sutured to the sidewall with 5-0 Ethilon. For local administration, an Alzet miniosmotic pump (10 μl/hour, 2 ml, Model 2ML1 from Durect), filled with one dosage level or placebo (water for injection) control at 10 μl/hour over 7 days starting with the day of surgery was placed in the subcutaneous space. The catheter was then attached to the pump and the midline muscle incision was closed around the catheter. The cecum and bowel were exteriorized and digital pressure was exerted to create subserosal hemorrhages over all surfaces. The damaged intestine was then lightly abraded with 4″×4″ 4-ply sterile gauze until punctate bleeding was observed. The cecum and bowel was then returned to their normal anatomic position. A 5×3 cm area of peritoneum and transversus abdominous muscle was removed on the right lateral abdominal wall. The incision was closed in two layers with 3-0 Vicryl (Ethicon, Somerville, N.J.). The pump was replaced at day 7.
Twenty-one days after surgery, rabbits were sacrificed by intravenous EuthaSol. Adhesion formation at the site of sidewall injury was assessed by examination to determine the percentage of the area of the sidewall injury involved in adhesions. The percentage of a surface of the sidewall involved in adhesions to various organs are given in the tables below to quantify the overall adhesion score. In addition, tenacity of the adhesion formed was scored using a system as follows:
1=mild, easily dissectible adhesions;
3=dense adhesions; non-dissectible, tears when removed.
The difference in adhesion formation between the control and treated groups were analyzed by Student's t-test. A reduction in the area and the tenacity of the adhesions would be considered beneficial and efficacious.
General observations were conducted on each animal (appearance, behavior, clinical signs, symptoms, moribundity, mortality, and physical examinations) prior to assignment to study and on the day of necropsy. On the day of necropsy data and observations were recorded with particular attention to inflammation, granulomatous material and adhesion formation at the treatment site. All biocompatibility results were recorded, and the level of reaction was noted (none, mild, moderate, severe).

[2] = tested on: adhesion formation at the site of sidewall injury; experiment: Peritoneal sidewall adhesion model (rabbit); assay type: in vivo; conditions: individual animals
[3] = 5 mg/ml, non-systemic by Alzet pump, 21 days after surgery
[4] = 5 mg/ml, non-systemic by pump, result in words

CN1CCN(C(=O)c2c[nH]c3ccc(Cl)cc23)CC1 [(5-Chloro-1H-indol-3-yl)-(4-methyl-piperazin-1-yl)-methanone]
Adhesion Area ([1]; 5 mg/ml, non-systemic by Alzet pump 10 μl/hour, 21 days after surgery): 60 percentage and 70 percentage and 40 percentage and 80 percentage and 50 percentage and 100 percentage (2×) | Adhesion Area Mean/SEM [1, 3]: 71.4 ± 8.8 percentage | Adhesion Tenacity Mean/SEM (mean of the rank of the tenacity) [1, 3]: 6.93 ± 1.4 | Adhesion Tenacity [1, 3]: 1 (6×) and 2 | clinical signs ([1]; 5 mg/ml, non-systemic by pump, general observations): No other rabbits showed any clinical signs | inflammatory or granulomatous reactions in the peritoneal cavity ([1]; 5 mg/ml, non-systemic by pump, necropsy observation): no inflammatory or granulomatous reactions | area of adhesions versus control [1, 4]: significantly reduced | tenacity of adhesions versus control [1, 4]: significantly reduced

Cc1cc(C)c2nc(-c3cnc(NCCCC4CCN(C)CC4)nc3C)[nH]c2c1 [Test Compound, [5-(4,6-dimethyl-1H-benzoimidazol-2-yl)-4-methyl-pyrimidin-2-yl]-[3-(1-methyl-piperidin-4-yl)-propyl]-amine]
Adhesion Area ([2]; 30 mg/kg orally (gavage on day of surgery and four additional days), 21 days after surgery): 100 percentage (3×) and 40 percentage and 70 percentage and 80 percentage and 60 percentage | Adhesion Tenacity ([2]; 30 mg/kg orally, score 0-3): 3 (2×) and 1 (3×) and 2 (2×) | Adhesion Area ([1]; 0.1 mg/ml, non-systemic (pump), 21 days after surgery): 80 percentage (2×) and 100 percentage (3×) and 70 percentage (2×) | Adhesion Area Mean/SEM ([1]; 0.1 mg/ml, non-systemic (pump)): 85.7 ± 5.28 percentage | Adhesion Tenacity Mean/SEM (mean of the rank of the tenacity) ([1]; 0.1 mg/ml, non-systemic (pump)): 20.1 ± 3.37 | Adhesion Tenacity ([1]; 0.1 mg/ml, non-systemic (pump)): 2 (5×) and 3 and 1 | Adhesion Area ([1]; 1 mg/ml, non-systemic (pump), 21 days after surgery): 80 percentage (3×) and 70 percentage and 60 percentage (3×) | Adhesion Area Mean/SEM ([1]; 1 mg/ml, non-systemic (pump)): 70 ± 10 percentage | Adhesion Tenacity Mean/SEM (mean of the rank of the tenacity) ([1]; 1 mg/ml, non-systemic (pump)): 13.9 ± 3.38 | Adhesion Tenacity ([1]; 1 mg/ml, non-systemic (pump)): 2 (4×) and 1 (3×) | Adhesion Area ([1]; 10 mg/ml, non-systemic (pump), 21 days after surgery): 100 percentage (2×) and 60 percentage (2×) and 80 percentage (2×) and 90 percentage | Adhesion Area Mean/SEM ([1]; 10 mg/ml, non-systemic (pump)): 81.4 ± 6.34 percentage | Adhesion Tenacity Mean/SEM (mean of the rank of the tenacity) ([1]; 10 mg/ml, non-systemic (pump)): 18.3 ± 1.43 | Adhesion Tenacity ([1]; 10 mg/ml, non-systemic (pump)): 2 (6×) and 1 | Adhesion Area Mean/SEM ([1]; 30 mg/kg orally): 78.6 ± 8.85 percentage | Adhesion Tenacity Mean/SEM (mean of the rank of the tenacity) ([1]; 30 mg/kg orally): 17.6 ± 5.27 | tenacity of adhesions ([1]; mid-dose (1 mg/ml) administered by pump, not statistically significant, result in words): appeared reduced | area of adhesion reduction ([1]; mid-dose (1 mg/ml) administered by pump, result in words): statistically significant

Reference: patent publication US20130202685A1, “Use of a histamine H4 antagonist for the treatment of post-operative adhesions” (Janssen Pharmaceutica NV, priority 2008, published 2013)
